According to paper PMC3409642 (Pharmaceutical research, 2012):
Where “and” joins values, the source holds several entries; their conditions need not be identical. Identical values can stand only once.

Biological target: T1, UGT1A9 (Homo sapiens, UniProt O60656)
T1 sequence (O60656 26-530): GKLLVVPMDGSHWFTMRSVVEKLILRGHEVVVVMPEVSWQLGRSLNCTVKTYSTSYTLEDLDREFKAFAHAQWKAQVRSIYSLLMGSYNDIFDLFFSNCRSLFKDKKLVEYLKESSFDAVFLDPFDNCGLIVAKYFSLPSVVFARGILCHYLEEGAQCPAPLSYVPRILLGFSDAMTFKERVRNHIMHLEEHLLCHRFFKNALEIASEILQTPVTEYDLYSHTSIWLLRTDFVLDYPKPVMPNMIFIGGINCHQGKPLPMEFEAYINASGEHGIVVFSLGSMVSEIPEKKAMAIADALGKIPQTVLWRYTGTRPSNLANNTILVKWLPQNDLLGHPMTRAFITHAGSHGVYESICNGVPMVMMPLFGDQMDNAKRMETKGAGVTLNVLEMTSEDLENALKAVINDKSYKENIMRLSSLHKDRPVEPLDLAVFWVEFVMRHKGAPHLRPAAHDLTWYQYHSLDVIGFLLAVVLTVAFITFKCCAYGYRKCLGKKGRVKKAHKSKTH
Assay: Kinetic profiling of glucuronidation by expressed human UGT1A9
Conditions: for Log (CLint) (Actual): log of experimental CLint (μl/mg/min)

Log (CLint) (Actual) | Compound | also measured
1.07 | COc1cc2oc(=O)cc(-c3ccccc3)c2cc1O [compound 12, 6-Hydroxy-7-methoxyl-4-phenylcoumarin] | –
2.93 | COc1cc(-c2cc(=O)c3c(O)cc(O)cc3o2)cc(OC)c1OC [compound 33, 5,7-Dihydroxy-3′,4′,5′-trimethoxyflavone] | –
1.78 | Oc1ccc(C2CCCC2)cc1 [compound 112, 4-Cyclopentylphenol] | –
2.62 | Cc1ccc(C(=O)c2cc(O)c(O)c([N+](=O)[O-])c2)cc1 [compound 145, Tolcapone, reference compound] | –
4.57 | COc1ccc2c(=O)c(O)c(-c3ccccc3)oc2c1 [compound 80, 3-Hydroxy-7-methoxyflavone] | –
3.86 | O=c1c(O)c(-c2ccc(O)cc2)oc2cc(O)ccc12 [92.a, Resokaempferol] | Log (CLint) (Actual) (listed as 92.b): 2.63
3.33 | COc1ccc(/C=C\c2cc(OC)c(OC)c(OC)c2)cc1O [compound 136, Combretastatin A4] | –
1.53 | O=C(/C=C/c1ccc(O)cc1)c1ccccc1 [compound 4, 4-Hydroxychalcone] | –
3.92 | COc1cccc(-c2oc3ccccc3c(=O)c2O)c1OC [compound 71, 3-Hydroxy-2′,3′-dimethoxyflavone] | –
4.44 | O=c1c(O)c(-c2cccc(O)c2)oc2ccccc12 [compound 60, 3,3′-Dihydroxyflavone] | –
1.87 | Oc1ccc2c(c1)OC[C@H]1c3cc4c(cc3O[C@@H]21)OCO4 [compound 107, Maackiain] | –
3.08 | O=c1cc(-c2ccc(O)c(O)c2)oc2cc(O)ccc12 [41.a, 7,3′,4′-Trihydroxyflavone] | Log (CLint) (Actual) (listed as 41.b): 2.48; Log (CLint) (Actual) (listed as 41.c): 2.11
4.25 | COc1ccccc1-c1oc2ccccc2c(=O)c1O [compound 72, 3-Hydroxy-2′-methoxyflavone] | –
3.18 | O=C1C[C@@H](c2ccc(O)cc2)Oc2cc(O)cc(O)c21 [compound 27, Narigenin] | Km (human, expressed human UGT1A9 (Supersomes), pH 7.4): 3.34 µM
2.36 | COc1ccc(-c2cc(=O)c3ccc(O)cc3o2)cc1 [compound 47, 7-Hydroxy-4′-methoxyflavone] | –
1.00 | CCCOc1ccc(O)cc1 [compound 125, 4-Propoxyphenol] | –
1.18 | COc1ccc(O)cc1 [compound 118, 4-Methoxyphenol] | –
2.74 | O=c1cc(-c2cccc(O)c2)oc2cc(O)ccc12 [compound 43, 7,3′-Dihydroxyflavone] | –
1.48 | COc1ccc(-c2coc3cc(O)ccc3c2=O)cc1 [compound 104, Formononetin] | –
0.57 | Oc1ccc([C@H]2COc3cc(O)ccc3C2)cc1 [compound 103, Equol] | –
1.61 | O=c1oc2cc(O)ccc2c(-c2ccccc2)c1-c1ccccc1 [compound 9, 3,4-Diphenyl-7-hydroxycoumarin] | –
1.53 | O=c1cc(-c2ccccc2)oc2ccc(O)cc12 [compound 38, 6-Hydroxyflavone] | –
1.87 | CCc1ccc(O)cc1 [compound 114, 4-Ethylphenol] | –
3.57 | COc1ccc2c(=O)c(-c3ccccc3)coc2c1O [compound 99, 8-Hydroxy-7-methoxyisoflavone] | –
– | N#C/C(=C\c1ccc(O)c(O)c1)C(=O)NCc1ccccc1 [23.a, Tyrphostin B42] | Vmax (pH 7.4): 3677 pmol/mg/min and 2008 pmol/mg/min
0.05 | COc1cc(/C=C/c2ccc(O)cc2)cc(OC)c1 [compound 137, Pterostilbene] | –
3.38 | O=C(/C=C/c1ccccc1O)c1ccccc1 [compound 3, 2-Hydroxychalcone] | –

Log (CLint) (Actual) | Compound | also measured
1.89 | O=c1c(O)c(-c2ccccc2O)oc2ccccc12 [compound 59, 3,2′-Dihydroxyflavone] | –
2.57 | COc1cc2c(=O)c(-c3ccccc3)coc2cc1O [compound 98, 7-Hydroxy-6-methoxyisoflavone] | –
4.34 | O=c1c(O)c(-c2ccc(O)c(O)c2)oc2ccccc12 [compound 63, 3,3′,4′-Trihydroxyflavone] | –
4.66 | COc1cccc(-c2oc3ccccc3c(=O)c2O)c1 [compound 73, 3-Hydroxy-3′-methoxyflavone] | –
2.44 | COc1cc2c(=O)c(-c3ccc(O)cc3)coc2cc1O [compound 106, Glycitein] | –
0.82 | CC/C(=C(\c1ccc(O)cc1)c1ccc(OCCNC)cc1)c1ccccc1 [compound 19, Endoxifen] | –
3.66 | COc1cc(-c2oc3cc(O)ccc3c(=O)c2O)cc(OC)c1OC [67.a, 3,7-Dihydroxy-3′,4′,5′-trimethoxyflavone] | –
2.96 | O=c1cc(-c2ccccc2)oc2cc(O)c(O)cc12 [compound 37, 6,7-Dihydroxyflavone] | –
3.54 | O=c1cc(-c2ccc(O)c(O)c2)oc2ccc(O)cc12 [compound 35, 6,3′,4′-Trihydroxyflavone] | –
1.14 | COc1cc(/C=C/C(O)=C/C(=O)/C=C/c2ccc(O)cc2)ccc1O [compound 16, Demethoxycurcumin] | –
1.96 | O=C1OC[C@H](Cc2cccc(O)c2)[C@H]1Cc1cccc(O)c1 [compound 20, Enterolactone] | –
3.38 | O=c1c(O)c(-c2ccc(O)c(O)c2)oc2cc(O)ccc12 [84.a, Fisetin] | Log (CLint) (Actual) (listed as 84.b): 3.55; Log (CLint) (Actual) (listed as 84.c): 3.49
1.74 | COc1cc(/C=C/C(=O)CC(=O)/C=C/c2ccc(O)c(OC)c2)ccc1O [compound 15, Curcumin] | –
4.51 | COc1ccc(-c2oc3ccccc3c(=O)c2O)cc1 [compound 74, 3-Hydroxy-4′-methoxyflavone] | –
0.90 | O=C(/C=C/c1ccc(O)cc1)CC(=O)/C=C/c1ccc(O)cc1 [compound 17, Bisdemethoxycurcumin] | –
3.97 | O=c1c(O)c(-c2ccc(O)c(O)c2)oc2cc(O)cc(O)c12 [91.a, Quercetin] | Log (CLint) (Actual) (listed as 91.b): 3.32; Log (CLint) (Actual) (listed as 91.c): 3.65
4.34 | O=c1c(O)c(-c2ccc(O)cc2)oc2ccc(O)cc12 [compound 62, 3,6,4′-Trihydroxyflavone] | –
2.66 | O=c1cc(-c2cccc(O)c2)oc2ccccc12 [compound 31, 3′-Hydroxyflavone] | –
3.66 | COc1ccc(-c2oc3cc(O)cc(O)c3c(=O)c2OC)cc1O [compound 29, 3,4′-Dimethoxy-5,7,3′-trihydroxyflavone] | –
4.32 | O=c1c(O)c(-c2ccccc2)oc2cc(O)ccc12 [68.a, 3,7-Dihydroxyflavone] | Log (CLint) (Actual) (listed as 68.b): 3.13
3.60 | COc1cc(-c2oc3cc(O)ccc3c(=O)c2O)ccc1O [compound 86, Geraldol] | –
2.87 | O=C(CCc1ccc(O)cc1)c1c(O)cc(O)cc1O [7.a, Phloretin] | Log (CLint) (Actual) (listed as 7.b): 3.17
2.00 | O=c1c(O)c(-c2ccccc2O)oc2cc(O)cc(O)c12 [compound 83, Datiscetin] | –
5.04 | Cc1ccc2oc(-c3ccccc3)c(O)c(=O)c2c1 [compound 66, 3-Hydroxy-6-methylflavone] | –
4.96 | Cc1ccc2oc(-c3ccc4c(c3)OCO4)c(O)c(=O)c2c1 [compound 82, 3-Hydroxy-6-methyl-3′,4′-methylenedioxyflavone] | –
1.18 | Oc1ccc(F)cc1 [compound 115, 4-Fluorophenol] | –

Compound | Log (CLint) (Actual) | also measured
COc1cc(O)c2c(=O)c(-c3ccc(O)cc3)coc2c1 [compound 108, Prunetin] | 2.25 | –
O=c1c(O)c(-c2ccccc2)oc2ccccc12 [compound 81, 3-Hydroxyflavone] | 3.84 | –
Oc1ccc(-c2ccccc2)cc1 [compound 123, 4-Phenylphenol] | 1.34 | –
Oc1ccc(Cl)cc1 [compound 111, 4-Chlorophenol] | 1.98 | –
O=c1c(O)c(-c2cc(O)c(O)c(O)c2)oc2cc(O)cc(O)c12 [90.a, Myricetin] | 2.90 | Log (CLint) (Actual) (listed as 90.b): 3.36; Log (CLint) (Actual) (listed as 90.c): 3.69
COc1cc(-c2oc3cc(O)cc(O)c3c(=O)c2O)cc(OC)c1O [94.a, Syringetin] | 3.87 | Log (CLint) (Actual) (listed as 94.b): 2.26
(−)-Epigallocatechingallate [1.a] | 2.20 | Log (CLint) (Actual) (listed as 1.b): 2.81
O=[N+]([O-])c1ccc(O)cc1 [compound 120, 4-Nitrophenol] | 1.56 | –
